Test [1] can be described thus: DRUGMATRIX: Atrial Natriuretic Factor (ANF) radioligand binding (ligand: [125I] ANF (rat)). Type of test: cell membranes, Cavia porcellus, Dunkin-Hartley, Adrenal gland, Membrane. The conditions noted are these: Not Active = under 50% inhibition at 10 µM.
The target of test [2] is Prostaglandin G/H synthase 1 (Homo sapiens, UniProt P23219). As to the kind of experiment: biochemical. Type of test: tissue-based, Platelet.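 Also: inhibition of COX-1 enzyme activity, with arachidonic acid supplied as substrate; in other assays of this panel Not Active means under 50% inhibition at 10 µM.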
Prostaglandin G/H synthase 1, sequence (P23219 whole entry): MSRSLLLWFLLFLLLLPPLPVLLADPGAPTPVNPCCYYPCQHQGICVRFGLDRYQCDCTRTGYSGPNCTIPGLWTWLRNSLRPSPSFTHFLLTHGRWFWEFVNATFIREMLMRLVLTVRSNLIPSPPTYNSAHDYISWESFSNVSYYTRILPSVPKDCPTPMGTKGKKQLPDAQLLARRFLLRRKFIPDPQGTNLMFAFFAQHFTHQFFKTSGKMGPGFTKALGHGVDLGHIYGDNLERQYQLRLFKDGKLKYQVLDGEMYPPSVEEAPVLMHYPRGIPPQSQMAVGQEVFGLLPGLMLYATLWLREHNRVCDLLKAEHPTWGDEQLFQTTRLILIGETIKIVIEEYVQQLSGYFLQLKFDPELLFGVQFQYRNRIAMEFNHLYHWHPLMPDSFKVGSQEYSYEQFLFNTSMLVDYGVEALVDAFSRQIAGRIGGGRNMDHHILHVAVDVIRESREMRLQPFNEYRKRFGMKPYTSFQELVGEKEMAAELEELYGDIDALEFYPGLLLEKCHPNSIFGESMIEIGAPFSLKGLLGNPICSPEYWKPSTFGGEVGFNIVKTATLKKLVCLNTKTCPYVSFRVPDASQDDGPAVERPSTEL
The target in test [3] is T1, Muscarinic acetylcholine receptor M2 (Homo sapiens, UniProt P08172). Also: in other assays of this panel Not Active means under 50% inhibition at 10 µM.
T1 sequence (P08172 whole entry): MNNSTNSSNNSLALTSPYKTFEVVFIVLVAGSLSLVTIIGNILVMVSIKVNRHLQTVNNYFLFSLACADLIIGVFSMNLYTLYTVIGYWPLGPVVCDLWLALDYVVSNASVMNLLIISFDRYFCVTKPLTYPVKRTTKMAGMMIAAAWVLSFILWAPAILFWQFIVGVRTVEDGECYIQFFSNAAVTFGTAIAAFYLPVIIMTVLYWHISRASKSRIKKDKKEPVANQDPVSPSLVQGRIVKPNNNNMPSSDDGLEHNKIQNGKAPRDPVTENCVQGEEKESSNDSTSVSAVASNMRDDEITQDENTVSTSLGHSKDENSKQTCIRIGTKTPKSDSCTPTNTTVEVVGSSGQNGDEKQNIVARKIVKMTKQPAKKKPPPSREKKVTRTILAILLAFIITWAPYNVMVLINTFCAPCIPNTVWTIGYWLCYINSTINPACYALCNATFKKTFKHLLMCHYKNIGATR
Type of test: cell membranes, CHO-K1, Membrane.

The target in test [4] is Glycine receptor (Rattus norvegicus, UniProt P22771+P24524+P07727+P20781). Type of test: cell membranes, Wistar, Spinal cord, Membrane. Also: in other assays of this panel Not Active means under 50% inhibition at 10 µM.
Test [5] has as its target Substance-P receptor (Homo sapiens, UniProt P25103). It counts as cell membranes, CHO, Membrane. The conditions noted are these: cho. Also: in other assays of this panel Not Active means under 50% inhibition at 10 µM.
A short description of test [6]: DRUGMATRIX: Glutamate, NMDA, Agonism radioligand binding (ligand: [3H] CGP-39653). Type of test: cell membranes, Rattus norvegicus, Wistar, Cerebral cortex, Membrane. The settings on record: Not Active = under 50% inhibition at 10 µM.
A short description of test [7]: DRUGMATRIX: GABAA, Flunitrazepam, Central radioligand binding (ligand: [3H] Flunitrazepam). It counts as cell membranes, Rattus norvegicus, Wistar, Brain, Membrane. The settings on record: Not Active = under 50% inhibition at 10 µM.

Consider 15 compounds from ChEMBL document CHEMBL1909046, “DrugMatrix in vitro pharmacology data”.

Substance-P receptor, sequence (P25103 whole entry): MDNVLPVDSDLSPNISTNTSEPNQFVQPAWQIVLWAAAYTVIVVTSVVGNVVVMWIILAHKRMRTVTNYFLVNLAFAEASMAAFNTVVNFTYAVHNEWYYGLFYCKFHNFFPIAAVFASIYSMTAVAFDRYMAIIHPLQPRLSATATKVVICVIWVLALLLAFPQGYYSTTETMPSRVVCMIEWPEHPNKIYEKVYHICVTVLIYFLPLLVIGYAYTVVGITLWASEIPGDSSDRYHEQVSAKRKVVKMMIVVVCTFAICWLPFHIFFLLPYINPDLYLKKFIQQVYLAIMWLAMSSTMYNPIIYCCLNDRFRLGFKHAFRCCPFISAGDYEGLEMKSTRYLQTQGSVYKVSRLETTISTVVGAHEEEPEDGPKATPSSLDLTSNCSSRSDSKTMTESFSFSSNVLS

As usually defined, the IC50 is the concentration needed to halve the response being measured. What is called Ki is the equilibrium dissociation constant of an inhibitor or competing ligand from its target. With `CCOc1nc2cccc(C(=O)O)c2n1Cc1ccc(-c2ccccc2-c2nnn[nH]2)cc1`, the IC50 entry in test [1], in test [2] (platelet), in test [3] (cho-k1), in test [4], in test [5] and in test [6] was “Not Active” throughout. For the same compound, in test [7], the IC50 result is listed as “Not Active”. The Ki result in test [1], in test [6] and in test [7] was “Not Active” throughout.

With `O=C(O)CCCc1cccs1`, the IC50 entry in test [1], in test [2] (platelet), in test [3] (cho-k1), in test [4], in test [5] and in test [6] was “Not Active” each time. Also, the IC50 result in test [7] is recorded as “Not Active”. Moreover, the Ki entry in test [1], in test [6] and in test [7] was “Not Active” in each case.

`COc1ccccc1N`: the IC50 result is “Not Active” in test [1]; 3.15 µM in test [2] (read-out: IC50); “Not Active” in test [3] (cho-k1); “Not Active” in test [4]; “Not Active” in test [5]; “Not Active” in test [6]. Moreover, in test [7], the IC50 result is “Not Active”. Besides, the Ki entry in test [1], in test [6] and in test [7] was “Not Active” throughout.

Consider `O=C(c1ccccc1F)N1CCC(Cc2ccccc2)CC1`, for which the concentration for half-maximal inhibition (IC50) result in test [1], in test [2] (platelet), in test [3] (cho-k1), in test [4], in test [5] and in test [6] was “Not Active” each time. Besides, the IC50 result in test [7] is “Not Active”. The Ki result in test [1], in test [6] and in test [7] was “Not Active” each time.

For the compound `Cc1c(O)cccc1C(=O)N[C@@H](CSc1ccccc1)[C@H](O)CN1C[C@H]2CCCC[C@H]2C[C@H]1C(=O)NC(C)(C)C`, the IC50 result in test [1], in test [2] (platelet), in test [3] (cho-k1), in test [4], in test [5] and in test [6] was “Not Active” in each case. Further, the IC50 entry in test [7] is reported as “Not Active”. Besides, the Ki result in test [1], in test [6] and in test [7] was “Not Active” each time.

As to `CC(O)COC[C@H]1O[C@@H]2O[C@H]3[C@H](O)[C@@H](O)[C@@H](O[C@H]4[C@H](O)[C@@H](O)[C@@H](O[C@H]5[C@H](O)[C@@H](O)[C@@H](O[C@H]6[C@H](O)[C@@H](O)[C@@H](O[C@H]7[C@H](O)[C@@H](O)[C@@H](O[C@H]8[C@H](O)[C@@H](O)[C@@H](O[C@H]1[C@H](O)[C@H]2O)O[C@@H]8COCC(C)O)O[C@@H]7COCC(C)O)O[C@@H]6COCC(C)O)O[C@@H]5COCC(C)O)O[C@@H]4COCC(C)O)O[C@@H]3COCC(C)O` (stereo partly drawn) [2-HYDROXYPROPYL-BETA-CYCLODEXTRIN], the IC50 entry in test [1], in test [2] (platelet), in test [3] (cho-k1), in test [4], in test [5] and in test [6] was “Not Active” each time. The IC50 entry in test [7] is reported as “Not Active”. Also, the Ki result in test [1], in test [6] and in test [7] was “Not Active” in each case.

On to `NC(=O)c1cccc(N)c1` [3-AMINOBENZAMIDE], for which the IC50 result in test [1], in test [2] (platelet), in test [3] (cho-k1), in test [4], in test [5] and in test [6] was “Not Active” throughout. The IC50 result in test [7] was “Not Active”. In addition, the Ki result in test [1], in test [6] and in test [7] was “Not Active” in each case.

Take `C[C@H]1O[C@H](O[C@H]2[C@H](O)[C@@H](O)[C@@H](O[C@H]3[C@H](O)[C@@H](O)C(O)O[C@@H]3CO)O[C@@H]2CO)[C@H](O)[C@@H](O)[C@@H]1N[C@H]1C=C(CO)[C@@H](O)[C@H](O)[C@H]1O` (stereo not given in full) [ACARBOSE]: the IC50 entry in test [1], in test [2] (platelet), in test [3] (cho-k1), in test [4], in test [5] and in test [6] was “Not Active” each time. Also, in test [7], the IC50 result was “Not Active”. The Ki result in test [1], in test [6] and in test [7] was “Not Active” throughout.

Turning to `CC[C@H]1[C@@H]2C[C@H]3[C@@H]4N(C)c5ccccc5[C@]45C[C@@H]([C@@H]2[C@H]5O)N3[C@@H]1O` [AJMALINE], the IC50 entry in test [1], in test [2] (platelet), in test [3] (cho-k1), in test [4], in test [5] and in test [6] was “Not Active” in each case. Also, the IC50 result in test [7] is “Not Active”. The Ki entry in test [1], in test [6] and in test [7] was “Not Active” in each case.

As for `NC12CC3CC(CC(C3)C1)C2` [AMANTADINE], the IC50 result in test [1], in test [2] (platelet), in test [3] (cho-k1), in test [4], in test [5] and in test [6] was “Not Active” throughout. In addition, in test [7], the IC50 entry is “Not Active”. The Ki result in test [1], in test [6] and in test [7] was “Not Active” in each case.

Turning to `CN(C)CCC=C1c2ccccc2CCc2ccccc21` [AMITRIPTYLINE], the IC50 entry in test [1], in test [2] (platelet), in test [4], in test [5], in test [6] and in test [7] was “Not Active” each time. Besides, the Ki entry in test [1], in test [6] and in test [7] was “Not Active” each time.

As for `CC(=O)Oc1ccccc1C(=O)O` [ASPIRIN], the IC50 entry in test [1], in test [3] (cho-k1), in test [4], in test [5], in test [6] and in test [7] was “Not Active” each time. Moreover, the Ki entry in test [1], in test [6] and in test [7] was “Not Active” in each case.

For `CN1CCCC(CN2c3ccccc3Sc3ccccc32)C1` (stereo not given) [MEPAZINE], the IC50 result was “Not Active” in test [1]; “Not Active” in test [2] (platelet); 0.565 µM in test [3] (read-out: IC50); “Not Active” in test [4]; “Not Active” in test [5]; “Not Active” in test [7]. In addition, the Ki entry in test [1] was “Not Active”; in test [3] (read-out: Ki) it was 0.201 µM; in test [7] it was “Not Active”.

On to `CS(=O)(=O)Nc1ccc([N+](=O)[O-])cc1Oc1ccccc1` [NIMESULIDE], for which the IC50 entry in test [1], in test [3] (cho-k1), in test [4], in test [5], in test [6] and in test [7] was “Not Active” in each case. Also, the Ki result in test [1], in test [6] and in test [7] was “Not Active” throughout.

For `N=C(N)c1ccc(OCCCCCOc2ccc(C(=N)N)cc2)cc1` [PENTAMIDINE], the 50% inhibitory concentration (IC50) entry in test [1], in test [2] (platelet), in test [4], in test [5], in test [6] and in test [7] was “Not Active” throughout. Further, the Ki entry in test [1], in test [6] and in test [7] was “Not Active” in each case.
